Assay results: patent US10883137B2, “Method to detect activity of a polymerase” (MAX-PLANCK-GESELLSCHAFT ZUR FÖRDERUNG DER WISSENSCHAFTEN …, priority 2015, dated 2021)

Key:
Type in all cases: biochemical
[1] = biological target: human POLRMT (mitochondrial DNA-directed RNA polymerase) (Homo sapiens, UniProt O00411); assay: Inhibitor activity determination, mitochondrial RNA-polymerase, 384-well dose-response format; settings: for IC50: 384-well, 8-point dilution series, 200 μM to 5 μM, 500 μM dNTPs; for Hill slope: four-parameter non-linear regression fit; for res. activity at highest conc.: highest assay conc. 200 μM; for res. activity at highest conc. / res. activity at lowest conc.: relative to positive control; for res. activity at lowest conc.: lower limit of 5 μM
Source text: The assay protocol largely corresponds to the setup described in example 1 (Determination of activity of mitochondrial RNA-polymerase using the same initiator and probes than in example 1). For determination of the activity, however, the reaction mix always contains the nucleotide triphosphate mix, to enforce potential competition between inhibitor compound and substrate. Negative control samples are set up such that no template DNA (pUC-LSP) is included in the reaction mixture.
Pre-diluted protein samples are mixed with the dNTP-mixture in a reaction buffer, containing 10 mM TrisHCl pH 7.5, 10 mM MgCl2, 40 mM NaCl, 2 mM GSH, 0.01% (w/v) Tween-20 and 0.1 mg/mL BSA, to yield final assay concentrations of 7.5 nM (POLRMT), 90 nM (TFAM), 20 nM (TFB2M) and 500 μM (dNTPs). 5 μL of this mix are dispensed, depending on the chosen microtiter plate format, using multi-channel pipettes or a Thermo Multidrop® dispenser into the wells of a microtiter plate and incubated at room-temperature (RT) for 10 minutes.
Equal amounts of DMSO without any compound are added to positive control samples. An incubation step at RT for 10 minutes is applied to allow binding of compounds.
The enzymatic reaction is started by the addition of 5 μL of a mix of template DNA (pUC-LSP) in reaction buffer to a final concentration of 0.5 nM. The following mixing, incubation and detection steps correspond to the steps described in example 1.

[2] = biological target: T1, human mitochondrial DNA-polymerase (POLG) (Homo sapiens, UniProt P54098); assay: Inhibitor activity determination using human mitochondrial DNA-polymerase, 384-well dose-response format
T1 sequence (P54098 1-1239): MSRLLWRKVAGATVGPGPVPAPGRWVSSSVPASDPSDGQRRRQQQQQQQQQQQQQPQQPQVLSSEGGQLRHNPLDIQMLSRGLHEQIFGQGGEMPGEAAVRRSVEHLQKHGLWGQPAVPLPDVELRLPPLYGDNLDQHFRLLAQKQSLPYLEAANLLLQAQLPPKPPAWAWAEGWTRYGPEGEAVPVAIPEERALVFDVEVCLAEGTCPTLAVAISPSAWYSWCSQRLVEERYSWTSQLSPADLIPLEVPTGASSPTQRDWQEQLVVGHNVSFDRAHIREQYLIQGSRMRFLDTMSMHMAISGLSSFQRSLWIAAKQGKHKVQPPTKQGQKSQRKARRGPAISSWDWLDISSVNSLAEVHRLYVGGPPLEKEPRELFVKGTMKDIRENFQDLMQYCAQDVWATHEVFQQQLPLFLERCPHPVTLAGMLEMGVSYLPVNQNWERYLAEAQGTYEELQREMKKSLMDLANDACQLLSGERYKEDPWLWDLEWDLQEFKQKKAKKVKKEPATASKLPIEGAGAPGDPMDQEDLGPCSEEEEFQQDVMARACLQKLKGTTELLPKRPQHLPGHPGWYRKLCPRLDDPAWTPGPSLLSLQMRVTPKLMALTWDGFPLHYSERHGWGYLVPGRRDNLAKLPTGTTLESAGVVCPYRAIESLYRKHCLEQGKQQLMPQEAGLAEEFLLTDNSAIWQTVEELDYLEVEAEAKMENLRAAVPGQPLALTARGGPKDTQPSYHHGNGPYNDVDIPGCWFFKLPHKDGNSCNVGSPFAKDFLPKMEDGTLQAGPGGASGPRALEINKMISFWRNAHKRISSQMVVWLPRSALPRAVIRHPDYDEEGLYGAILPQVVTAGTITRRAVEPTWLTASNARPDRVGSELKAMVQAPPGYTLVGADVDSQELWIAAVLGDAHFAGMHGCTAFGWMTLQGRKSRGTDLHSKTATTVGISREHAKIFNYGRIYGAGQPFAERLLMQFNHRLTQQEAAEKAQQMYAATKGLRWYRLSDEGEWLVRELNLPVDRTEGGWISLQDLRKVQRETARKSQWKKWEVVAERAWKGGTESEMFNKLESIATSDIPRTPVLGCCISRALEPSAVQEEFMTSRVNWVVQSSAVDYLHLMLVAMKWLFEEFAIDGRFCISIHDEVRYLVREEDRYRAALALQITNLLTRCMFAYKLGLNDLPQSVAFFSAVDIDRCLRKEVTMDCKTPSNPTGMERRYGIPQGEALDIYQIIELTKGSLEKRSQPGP
T1 sequence (Q9UHN1 1-485 partner): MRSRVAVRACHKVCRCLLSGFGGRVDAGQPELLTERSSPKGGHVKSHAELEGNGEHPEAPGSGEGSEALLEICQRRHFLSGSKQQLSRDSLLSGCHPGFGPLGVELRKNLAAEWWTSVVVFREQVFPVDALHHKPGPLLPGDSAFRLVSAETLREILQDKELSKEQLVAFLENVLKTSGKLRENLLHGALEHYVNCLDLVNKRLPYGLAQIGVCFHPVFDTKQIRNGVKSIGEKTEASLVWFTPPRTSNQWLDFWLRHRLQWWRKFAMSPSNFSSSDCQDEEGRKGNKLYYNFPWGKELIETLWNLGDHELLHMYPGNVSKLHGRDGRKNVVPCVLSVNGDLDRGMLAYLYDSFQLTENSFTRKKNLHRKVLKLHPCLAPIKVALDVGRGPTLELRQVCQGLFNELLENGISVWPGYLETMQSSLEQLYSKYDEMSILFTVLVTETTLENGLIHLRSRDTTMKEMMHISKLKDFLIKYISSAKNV
Source text: The assay protocol largely corresponds to the setup described in example 1 (Determination of activity of mitochondrial RNA-polymerase using the same initiator and probes than in example 1). For determination of the activity of the mitochondrial replication, however, the two-subunit complex of the mitochondrial DNA-polymerase (POLG, NM_002693.2, NM_007215.3), the […] TWINKLE (NM_021830.4) and mitochondrial single-strand binding protein (SSBP1, NM_001256510.1) are used. Also, the reaction mix always contains the substrate nucleotide mix, to enforce potential competition between inhibitor compound and substrate.
For DNA-replication the template is generated using a circular, single-stranded DNA formed from pBlueskript SK+. To this circular, ssDNA, a primer with 42-nucleotide poly-T is annealed to form a fork structure. To make dsDNA, the primer is elongated with KOD polymerase, which synthesizes DNA around the entire circle, until again it reaches the primer. At this point DNA-synthesis stops and a double-stranded DNA template of about 3000 bp with an artificial replication fork is formed.
For activity determination, negative control samples are set up such that no template DNA is included in the assay mixture. Assay components are mixed in a buffer containing 25 mM TrisHCl pH 8.0, 5 mM MgCl2, 2 mM GSH, and 0.1 mg/mL BSA, to yield final assay concentrations of 30 nM POLG, 15 nM TWINKLE, 20 nM SSBP1, 250 μM dNTPs, 4 mM ATP as well as the two DNA-probes at 3 nM concentration each.
5 μL of this mix are dispensed, depending on the chosen microtiter plate format, using multi-channel pipettes or a Thermo Multidrop® dispenser into the wells of a microtiter plate and incubated at room-temperature (RT) for 10 minutes.
Chemical compounds under scrutiny in the assay are applied using contact-free acoustic droplet-dispensing (Labcyte Echo®) from 10 mM compound stocks (in 100% DMSO) in an appropriate 8-point dilution series to ensure accurate fitting of the resulting activity data (i.e. upper and lower asymptote reached). Equal amounts of DMSO without any compound are added to positive control samples. An incubation step at RT for 10 minutes is applied to allow binding of compounds.
The enzymatic reaction is started by the addition of 5 μL of a mix template DNA in reaction buffer to a final concentration of 5 nM. Following incubation for 1 h at 37° C., the reaction is stopped by addition of a detection mix, containing 3 nM streptavidin-coupled Eu-cryptate pre-incubated with an excess of an unspecific random oligonucleotide, in 20 mM Tris-HCl pH 8.0, 400 mM NaCl and 50 mM EDTA. HTRF-signals are measured following over-night incubation at room-temperature. […]

[3] = biological target: mitochondrial RNA-polymerase (POLRMT) (Homo sapiens, UniProt O00411); assay: Activity of mitochondrial RNA-polymerase with and without TEFM (in vitro transcription, FRET detection); settings: TEFM 100 nM; product formation quenched after 2 h
Method: FIG. 8: is displaying the result of a comparative study of the effect of adding TEFM to the in vitro transcription reaction, as described in example 6. Two transcription reactions were set up either with or without the addition of TEFM (100 nM) and product formation quenched after 2 h. The specific FRET signal of the reaction without TEFM was used as a reference and normalized to 100%, while for the reaction including TEFM a signal increase of around 18% (±10%) was measured under the chosen conditions.
To enhance the enzymatic turnover and, thus, specific signal intensity of the mitochondrial in vitro transcription reaction, the mitochondrial transcription elongation factor (TEFM, NP_078959.3.) can be added to the assay reagent mixture.
The general workflow of the assay and composition of assay reagents are described in Posse et al (Nucl. Acids Res. 2015). A linearized pUC18 plasmid comprising the human mitochondrial light-strand promotor sequence (LSP) is used as transcription plasmid.
Adaptations made to the original protocol relate to the different detection method applied and correspond to the set-up described in example 1.

Sequence of human POLRMT (mitochondrial DNA-directed RNA polymerase) (O00411 42-1230): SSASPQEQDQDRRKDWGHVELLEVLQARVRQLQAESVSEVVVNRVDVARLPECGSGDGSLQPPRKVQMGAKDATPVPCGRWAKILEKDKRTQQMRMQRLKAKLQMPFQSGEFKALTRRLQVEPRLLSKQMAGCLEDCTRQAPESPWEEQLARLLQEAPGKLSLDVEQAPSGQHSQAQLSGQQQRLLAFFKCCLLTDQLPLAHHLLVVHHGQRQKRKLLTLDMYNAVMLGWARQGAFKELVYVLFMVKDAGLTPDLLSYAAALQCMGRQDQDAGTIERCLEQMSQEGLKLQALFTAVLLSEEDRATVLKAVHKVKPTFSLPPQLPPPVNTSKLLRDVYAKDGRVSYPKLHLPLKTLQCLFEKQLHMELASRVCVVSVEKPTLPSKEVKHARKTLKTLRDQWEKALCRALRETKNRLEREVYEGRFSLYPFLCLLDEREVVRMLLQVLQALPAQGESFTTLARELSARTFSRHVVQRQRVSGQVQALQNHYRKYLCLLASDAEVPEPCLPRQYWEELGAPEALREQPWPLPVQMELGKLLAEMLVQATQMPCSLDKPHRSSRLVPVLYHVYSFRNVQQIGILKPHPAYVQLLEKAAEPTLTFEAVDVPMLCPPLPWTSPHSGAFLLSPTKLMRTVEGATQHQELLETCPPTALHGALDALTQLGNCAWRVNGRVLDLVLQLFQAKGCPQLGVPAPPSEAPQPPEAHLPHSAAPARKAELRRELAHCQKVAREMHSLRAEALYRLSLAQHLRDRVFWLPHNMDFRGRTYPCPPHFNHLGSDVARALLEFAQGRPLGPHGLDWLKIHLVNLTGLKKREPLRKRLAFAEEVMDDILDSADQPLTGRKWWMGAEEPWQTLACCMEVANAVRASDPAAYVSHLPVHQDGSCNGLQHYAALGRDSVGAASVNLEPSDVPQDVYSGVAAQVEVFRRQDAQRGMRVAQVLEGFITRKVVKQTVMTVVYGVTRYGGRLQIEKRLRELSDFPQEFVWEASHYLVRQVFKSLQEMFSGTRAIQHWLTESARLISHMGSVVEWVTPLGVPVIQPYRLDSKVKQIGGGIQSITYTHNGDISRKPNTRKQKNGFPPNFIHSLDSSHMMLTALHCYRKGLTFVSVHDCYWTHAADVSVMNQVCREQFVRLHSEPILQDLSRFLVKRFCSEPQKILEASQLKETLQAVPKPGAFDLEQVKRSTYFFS
Sequence of mitochondrial RNA-polymerase (POLRMT) (O00411 42-1230): as above

Molecule	IC50 [1]	Hill slope [1]	res. activity at highest conc. [1]	res. activity at lowest conc. [1]	IC50 ([2]; 384-well, 200 μM to 5 μM, 250 μM dNTPs)	Hill slope ([2]; four-parameter non-linear regression fit)	res. activity at highest conc. ([2]; highest assay conc. 200 μM)	res. activity at lowest conc. ([2]; lower limit of 5 μM)	signal increase of specific FRET signal versus reaction without TEFM (100%) [3]
2′methyl/OH-O-UTP	84.5 µM	−0.85	8.6%	102%					
C[C@@]1(F)[C@H](O)[C@@H](COP(=O)(O)OP(=O)(O)OP(=O)(O)O)O[C@H]1n1cnc2c(=O)[nH]c(N)nc21 [2′methyl/F-GTP]	73.4 µM	−2.15	46.9%	88.32%					
C[C@@]1(O)[C@H](O)[C@@H](COP(=O)(O)OP(=O)(O)OP(=O)(O)O)O[C@H]1n1cnc2c(=O)[nH]c(N)nc21 [2′methyl/OH-GTP]		−2.05	65.5%	96.5%					
Cc1cn([C@H]2C[C@H](O)[C@@H](COP(=O)(O)OP(=O)(O)OP(=O)(O)O)O2)c(=O)[nH]c1=S [4-Thiothymidine-5′-Triphosphate]					54.1 µM	−0.9462	22.6%	92.79%	
TEFM: mitochondrial transcription elongation factor (TEFM, NP_078959.3) (protein, UniProt Q96QE5 36-360, looked up) Transcription elongation …: KSTTPKKITPNVTFCDENAKEPENALDKLFSSEQQASILHVLNTASTKELEAFRLLRGRRSINIVEHRENFGPFQNLESLMNVPLFKYKSTVQVCNSILCPKTGREKRKSPENRFLRKLLKPDIERERLKAVNSIISIVFGTRRIAWAHLDRKLTVLDWQQSDRWSLMRGIYSSSVYLEEISSIISKMPKADFYVLEKTGLSIQNSSLFPILLHFHIMEAMLYALLNKTFAQDGQHQVLSMNRNAVGKHFELMIGDSRTSGKELVKQFLFDSILKADPRVFFPSDKIVHYRQMFLSTELQRVEELYDSLLQAIAFYELAVFDSQP									around 18%
